Results: patent publication US10758534B2 (Vertex Pharmaceuticals Incorporated, priority 2014, dated 2020)

Molecular target: T1, F508del (Homo sapiens, UniProt P13569, DEL508-508)
T1 construct: expressed in transfected cells
Assay: Protocol 1: membrane potential optical assay (FLIPR III, voltage sensing dye), identification of potentiator compounds
Assay type: cell-based
Details: Table 3, compounds of Table 1
Outline: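 Mouse NIH 3T3 fibroblasts stably expressing F508del, temperature-corrected at 27 °C for 24 h, pretreated with compound, then loaded with voltage-sensing redistribution dye. Forskolin was added in a single step with a chloride gradient (chloride-free gluconate bath; Bath Solution #1 HEPES pH 7.4). Membrane-potential fluorescence read on FLIPR III.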

T1 sequence (P13569 with tags, fused parts or gaps DEL508-508): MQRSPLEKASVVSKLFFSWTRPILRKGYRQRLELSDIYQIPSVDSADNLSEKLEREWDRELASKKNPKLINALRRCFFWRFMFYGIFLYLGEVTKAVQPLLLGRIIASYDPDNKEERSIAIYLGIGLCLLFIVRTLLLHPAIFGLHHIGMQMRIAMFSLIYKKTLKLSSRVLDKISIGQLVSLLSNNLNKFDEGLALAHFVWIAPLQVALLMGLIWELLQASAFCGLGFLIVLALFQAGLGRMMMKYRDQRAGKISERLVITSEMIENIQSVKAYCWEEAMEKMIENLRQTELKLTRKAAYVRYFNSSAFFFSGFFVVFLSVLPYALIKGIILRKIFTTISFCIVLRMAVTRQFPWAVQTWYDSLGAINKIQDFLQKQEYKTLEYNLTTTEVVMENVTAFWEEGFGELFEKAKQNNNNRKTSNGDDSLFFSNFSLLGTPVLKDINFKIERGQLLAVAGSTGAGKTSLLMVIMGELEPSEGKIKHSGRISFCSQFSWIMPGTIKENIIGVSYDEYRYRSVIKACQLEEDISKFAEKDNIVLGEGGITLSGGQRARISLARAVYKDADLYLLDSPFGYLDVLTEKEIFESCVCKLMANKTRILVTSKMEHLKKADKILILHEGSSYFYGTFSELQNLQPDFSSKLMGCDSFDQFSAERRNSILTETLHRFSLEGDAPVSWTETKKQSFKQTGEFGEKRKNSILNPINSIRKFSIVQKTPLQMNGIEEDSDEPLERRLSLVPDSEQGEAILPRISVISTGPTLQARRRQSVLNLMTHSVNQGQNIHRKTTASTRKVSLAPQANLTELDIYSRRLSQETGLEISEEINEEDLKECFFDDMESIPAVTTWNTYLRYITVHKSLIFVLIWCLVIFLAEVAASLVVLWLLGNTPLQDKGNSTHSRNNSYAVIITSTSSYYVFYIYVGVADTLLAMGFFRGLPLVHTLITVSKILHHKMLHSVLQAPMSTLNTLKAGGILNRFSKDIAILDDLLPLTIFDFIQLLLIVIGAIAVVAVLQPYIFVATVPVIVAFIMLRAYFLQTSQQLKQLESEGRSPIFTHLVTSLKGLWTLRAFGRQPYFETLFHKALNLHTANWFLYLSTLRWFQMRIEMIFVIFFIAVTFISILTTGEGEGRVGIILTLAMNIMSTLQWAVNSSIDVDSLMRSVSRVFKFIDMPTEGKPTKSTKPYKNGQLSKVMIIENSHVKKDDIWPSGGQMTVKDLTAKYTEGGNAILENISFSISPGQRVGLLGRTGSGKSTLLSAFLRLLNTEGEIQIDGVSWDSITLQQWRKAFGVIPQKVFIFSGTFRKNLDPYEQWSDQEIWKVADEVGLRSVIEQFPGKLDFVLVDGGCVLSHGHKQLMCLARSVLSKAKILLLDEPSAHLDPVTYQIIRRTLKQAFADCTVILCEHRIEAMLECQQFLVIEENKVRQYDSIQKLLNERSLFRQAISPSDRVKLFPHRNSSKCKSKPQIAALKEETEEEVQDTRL

Row | EC30 | SMILES
1 | +++ (“+++” means <3 uM) | CCN(CC)c1nc(-c2ccc(C(=O)NS(=O)(=O)c3cccc(N)n3)c(N3CC(C)CC3(C)C)n2)ccc1C (stereo not shown) [Compound 1907, N-[(6-amino-2-pyridyl)sulfonyl]-6-[6-(diethylamino)-5-methyl-2-pyridyl]-2-(2,2,4-trimethylpyrrolidin-1-yl)pyridine-3-carboxamide]
2 | +++ (“+++” means <3 uM) | Cc1ccc(-c2ccc(C(=O)NS(=O)(=O)c3cccc(N)n3)c(Oc3ccc(C)cc3C)n2)cc1 [Compound 1015, N-[(6-amino-2-pyridyl)sulfonyl]-2-(2,4-dimethylphenoxy)-6-(p-tolyl)pyridine-3-carboxamide]
3 | ++ (“++” means between 3 uM and 10 uM) | CC(C)Oc1ccc(-c2ccc(C(=O)NS(=O)(=O)c3cccc(N)n3)c(N3CC[C@@H](C)C3)n2)cn1 [Compound 1322, N-[(6-amino-2-pyridyl)sulfonyl]-6-(6-isopropoxy-3-pyridyl)-2-[(3R)-3-methylpyrrolidin-1-yl]pyridine-3-carboxamide]
4 | ++ (“++” means between 3 uM and 10 uM) | COC[C@H]1C[C@@H]1c1ccc(C(=O)NS(=O)(=O)c2cccc(N)n2)c(N2C[C@@H](C)CC2(C)C)n1 [Compound 1575, N-[(6-amino-2-pyridyl)sulfonyl]-6-[(1S,2S)-2-(methoxymethyl)cyclopropyl]-2-[(4S)-2,2,4-trimethylpyrrolidin-1-yl]pyridine-3-carboxamide]
5 | +++ (“+++” means <3 uM) | COc1cc(-c2ccc(C(=O)NS(=O)(=O)c3cccc(N)n3)c(Oc3c(C)cc(C)cc3C)n2)ccc1F [Compound 919, N-[(6-amino-2-pyridyl)sulfonyl]-6-(4-fluoro-3-methoxy-phenyl)-2-(2,4,6-trimethylphenoxy)pyridine-3-carboxamide]
6 | +++ (“+++” means <3 uM) | CC(C)CN(C)c1ccc(-c2ccc(C(=O)NS(=O)(=O)c3cccc(N)n3)c(N3[C@H](C)CC[C@@H]3C)n2)cn1 [Compound 1506, N-[(6-amino-2-pyridyl)sulfonyl]-2-[(2S,5R)-2,5-dimethylpyrrolidin-1-yl]-6-[6-[isobutyl(methyl)amino]-3-pyridyl]pyridine-3-carboxamide]
7 | +++ (“+++” means <3 uM) | C[C@@H]1CN(c2nc(-c3ccc(F)cc3)ccc2C(=O)NS(=O)(=O)c2ccc[nH]c2=O)C(C)(C)C1 [Compound 1807, 6-(4-fluorophenyl)-N-[(2-oxo-1H-pyridin-3-yl)sulfonyl]-2-[(4S)-2,2,4-trimethylpyrrolidin-1-yl]pyridine-3-carboxamide]
8 | +++ (“+++” means <3 uM) | C[C@@H]1CN(c2nc(-c3ccc(F)c(F)c3)ccc2C(=O)NS(=O)(=O)c2cccnc2N)C(C)(C)C1 [Compound 1854, N-[(2-amino-3-pyridyl)sulfonyl]-6-(3,4-difluorophenyl)-2-[(4S)-2,2,4-trimethylpyrrolidin-1-yl]pyridine-3-carboxamide]
9 | ++ (“++” means between 3 uM and 10 uM) | Cc1cc(F)cc(-c2ccc(C(=O)NS(=O)(=O)N3CC[C@H](N)C3)c(N3C[C@@H](C)CC3(C)C)n2)c1 [Compound 1819, N-[(3S)-3-aminopyrrolidin-1-yl]sulfonyl-6-(3-fluoro-5-methyl-phenyl)-2-[(4S)-2,2,4-trimethylpyrrolidin-1-yl]pyridine-3-carboxamide]
10 | +++ (“+++” means <3 uM) | Cc1cc(C)c(Oc2nc(-c3cc(F)ccc3F)ccc2C(=O)NS(=O)(=O)c2cccc(N)n2)c(C)c1 [Compound 803, N-[(6-amino-2-pyridyl)sulfonyl]-6-(2,5-difluorophenyl)-2-(2,4,6-trimethylphenoxy)pyridine-3-carboxamide]
11 | ++ (“++” means between 3 uM and 10 uM) | CC(Nc1ncccc1C(=O)NS(=O)(=O)c1cccc(N)n1)c1cccc2ccccc12 (stereo not shown) [Compound 1769, N-[(6-amino-2-pyridyl)sulfonyl]-2-[1-(1-naphthyl)ethylamino]pyridine-3-carboxamide]
12 | ++ (“++” means between 3 uM and 10 uM) | CC(C)Oc1ccc(-c2ccc(C(=O)NS(=O)(=O)c3cccc(N)n3)c(N3CCC(F)(F)CC3)n2)cn1 [Compound 889, N-[(6-amino-2-pyridyl)sulfonyl]-2-(4,4-difluoro-1-piperidyl)-6-(6-isopropoxy-3-pyridyl)pyridine-3-carboxamide]
13 | +++ (“+++” means <3 uM) | Cc1cc(C)c(Oc2nc(-c3ccccc3)ccc2C(=O)NS(=O)(=O)c2cccc(N(C)C)n2)c(C)c1 [Compound 869, N-[[6-(dimethylamino)-2-pyridyl]sulfonyl]-6-phenyl-2-(2,4,6-trimethylphenoxy)pyridine-3-carboxamide]
14 | +++ (“+++” means <3 uM) | CCOc1cccc2c1CN(Cc1c(C)cc(C)cc1C)C2(C)C(=O)NS(=O)(=O)c1cccnc1 (stereo not shown) [Compound 1669, 4-ethoxy-1-methyl-N-(3-pyridylsulfonyl)-2-[(2,4,6-trimethylphenyl)methyl]isoindoline-1-carboxamide]
15 | +++ (“+++” means <3 uM) | CC(C)=C(C)c1cnc(N2CC(C)CC2(C)C)c(C(=O)NS(=O)(=O)c2cccc(N)n2)c1 (stereo not shown) [Compound 1590, N-[(6-amino-2-pyridyl)sulfonyl]-5-(1,2-dimethylprop-1-enyl)-2-(2,2,4-trimethylpyrrolidin-1-yl)pyridine-3-carboxamide]
16 | + (“+” means greater than 10 uM) | CC(C)CS(=O)(=O)N1CCC=C(c2ccc(C(=O)NS(=O)(=O)c3cccc(N)n3)c(N3C[C@@H](C)CC3(C)C)n2)C1 [Compound 1882, N-[(6-amino-2-pyridyl)sulfonyl]-6-(1-isobutylsulfonyl-3,6-dihydro-2H-pyridin-5-yl)-2-[(4S)-2,2,4-trimethylpyrrolidin-1-yl]pyridine-3-carboxamide]
17 | +++ (“+++” means <3 uM) | Cc1cc(C)c(Oc2nc(-c3cccc(Cl)c3)ccc2C(=O)NS(=O)(=O)c2cccc(N)n2)c(C)c1 [Compound 1295, N-[(6-amino-2-pyridyl)sulfonyl]-6-(3-chlorophenyl)-2-(2,4,6-trimethylphenoxy)pyridine-3-carboxamide]
18 | +++ (“+++” means <3 uM) | CC1CN(c2ncccc2C(=O)NS(=O)(=O)c2cccc(N3Cc4ccccc4C3)n2)C(C)(C)C1 (stereo not shown) [Compound 1838, N-[(6-isoindolin-2-yl-2-pyridyl)sulfonyl]-2-(2,2,4-trimethylpyrrolidin-1-yl)pyridine-3-carboxamide]
19 | ++ (“++” means between 3 uM and 10 uM) | CC1CCN(c2nc(C(C)(C)C)ccc2C(=O)NS(=O)(=O)c2ccc(N)cc2)CC1 [Compound 1037, N-(4-aminophenyl)sulfonyl-6-tert-butyl-2-(4-methyl-1-piperidyl)pyridine-3-carboxamide]
20 | +++ (“+++” means <3 uM) | CC(C)=Cc1cc(C(=O)NS(=O)(=O)c2cccc(N)n2)c(N2CC(C)CC2(C)C)nc1C(C)(C)C (stereo not shown) [Compound 1561, N-[(6-amino-2-pyridyl)sulfonyl]-6-tert-butyl-5-(2-methylprop-1-enyl)-2-(2,2,4-trimethylpyrrolidin-1-yl)pyridine-3-carboxamide]
21 | ++ (“++” means between 3 uM and 10 uM) | CCCOc1ccc(-c2ccc(C(=O)NS(=O)(=O)c3ccc[nH]c3=O)c(Oc3c(C)cc(C)cc3C)n2)cc1Cl [Compound 999, 6-(3-chloro-4-propoxy-phenyl)-N-[(2-oxo-1H-pyridin-3-yl)sulfonyl]-2-(2,4,6-trimethylphenoxy)pyridine-3-carboxamide]

Row | SMILES | EC30
22 | CC(C)COc1cc(F)cc(-c2ccc(C(=O)NS(=O)(=O)c3cccc(N)n3)c(N3C[C@@H]4CC[C@H]3C4)n2)c1 [Compound 1180, N-[(6-amino-2-pyridyl)sulfonyl]-2-[(1R,4S)-3-azabicyclo[2.2.1]heptan-3-yl]-6-(3-fluoro-5-isobutoxy-phenyl)pyridine-3-carboxamide] | +++ (“+++” means <3 uM)
23 | CC(C)COc1cc(F)cc(-c2ccc(C(=O)NS(=O)(=O)c3cccc(N)n3)c(OC3CC(OCc4ccccc4)C3)n2)c1 (stereo not shown) [Compound 1559, N-[(6-amino-2-pyridyl)sulfonyl]-2-(3-benzyloxycyclobutoxy)-6-(3-fluoro-5-isobutoxy-phenyl)pyridine-3-carboxamide] | +++ (“+++” means <3 uM)
24 | CC(C)COc1cncc(-c2ccc(C(=O)NS(=O)(=O)c3cccc(N)n3)c(N3C[C@@H](C)CC3(C)C)n2)n1 [Compound 1523, N-[(6-amino-2-pyridyl)sulfonyl]-6-(6-isobutoxypyrazin-2-yl)-2-[(4S)-2,2,4-trimethylpyrrolidin-1-yl]pyridine-3-carboxamide] | +++ (“+++” means <3 uM)
25 | Cc1cc(C)c(Oc2nc(-c3ccc(OCC(C)C)cc3)ccc2C(=O)NS(=O)(=O)c2ccc[nH]c2=O)c(C)c1 [Compound 1079, 6-(4-isobutoxyphenyl)-N-[(2-oxo-1H-pyridin-3-yl)sulfonyl]-2-(2,4,6-trimethylphenoxy)pyridine-3-carboxamide] | +++ (“+++” means <3 uM)
26 | CC(C)COc1cc(F)cc(-c2ccc(C(=O)NS(=O)(=O)c3cccc(N)n3)c(N3CCC(Cc4ccccc4)C3C)n2)c1 (stereo not shown) [Compound 969, N-[(6-amino-2-pyridyl)sulfonyl]-2-(3-benzyl-2-methyl-pyrrolidin-1-yl)-6-(3-fluoro-5-isobutoxy-phenyl)pyridine-3-carboxamide] | +++ (“+++” means <3 uM)
27 | Cc1cc(N)nc(S(=O)(=O)NC(=O)c2ccc(-c3cc(F)cc(OCC(C)C)c3)nc2N2C[C@@H](C)CC2(C)C)c1 [Compound 1472, N-[(6-amino-4-methyl-2-pyridyl)sulfonyl]-6-(3-fluoro-5-isobutoxy-phenyl)-2-[(4S)-2,2,4-trimethylpyrrolidin-1-yl]pyridine-3-carboxamide] | +++ (“+++” means <3 uM)
28 | CC(C)COc1cc(F)cc(-c2ccc(C(=O)NS(=O)(=O)c3cccc(N)n3)c(N3CCCCC3(C)C)n2)c1 [Compound 1004, N-[(6-amino-2-pyridyl)sulfonyl]-2-(2,2-dimethyl-1-piperidyl)-6-(3-fluoro-5-isobutoxy-phenyl)pyridine-3-carboxamide] | +++ (“+++” means <3 uM)
